Source: ChEMBL document CHEMBL1201862, “PubChem BioAssay data set” (2004)
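These data come from cells grown in 96-well plates and exposed to compound for 48 hours at five concentrations. Here, GI50 denotes the concentration required for 50% inhibition of growth.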 The source made the active and inactive calls. No stated cut-off is given here; in the data, active = GI50 up to about 1.1 µM and inactive = higher.

How the values were obtained:
Experiment in all cases: NCI tumour cell line growth inhibition, 48 h
A549 = tested on: A549
MOLT-4 = tested on: MOLT-4
TK-10 = tested on: TK-10
SF-295 = tested on: SF-295
NCI-H460 = tested on: NCI-H460
A498 = tested on: A498
HOP-92 = tested on: HOP-92
SNB-19 = tested on: SNB-19
UACC-62 = tested on: UACC-62
OVCAR-4 = tested on: OVCAR-4
SK-OV-3 = tested on: SK-OV-3
HOP-62 = tested on: HOP-62
SN12C = tested on: SN12C
SK-MEL-28 = tested on: SK-MEL-28
HCT-15 = tested on: HCT-15
SK-MEL-5 = tested on: SK-MEL-5
HT-29 = tested on: HT-29
SR = tested on: SR

SMILES | GI50 (A549) | GI50 (MOLT-4) | GI50 (TK-10) | GI50 (SF-295) | GI50 (NCI-H460) | GI50 (A498) | GI50 (HOP-92) | GI50 (SNB-19) | GI50 (UACC-62) | GI50 (OVCAR-4) | GI50 (SK-OV-3) | GI50 (HOP-62) | GI50 (SN12C) | GI50 (SK-MEL-28) | GI50 (HCT-15) [µM] | GI50 (SK-MEL-5) | GI50 (HT-29) | GI50 (SR)
C/C(=N\N=C(\N)S)c1ccc(Oc2ccccc2)cc1 | 18.7 µM (inactive) | 0.971 µM (active) | 4.09 µM (inactive) | 8.07 µM (inactive) | 17.3 µM (inactive) | 13.7 µM (inactive) | 3.65 µM (inactive) | 16 µM (inactive) | 10.6 µM (inactive) | 3.7 µM (inactive) | 16.2 µM (inactive) | 20.5 µM (inactive) | 11.4 µM (inactive) | 11.7 µM (inactive) | 3.99 | 5.12 µM (inactive) | – | –
O=c1ncc(F)cn1C1OC(CO)C(O)C1O (centres undefined) | > 36.6 µM (inactive) | > 20.7 µM (inactive) | > 69.2 µM (inactive) | > 29.7 µM (inactive) | 23.6 µM (inactive) | > 44.2 µM (inactive) | 23.8 µM (inactive) | > 18.3 µM (inactive) | > 37.6 µM (inactive) | > 80.5 µM (inactive) | > 42.6 µM (inactive) | > 30.7 µM (inactive) | > 17.4 µM (inactive) | > 45.6 µM (inactive) | > 100 | – | > 30.7 µM (inactive) | –
Cc1ccc2nc(NC(=O)C(=O)CC(=O)c3cccc4ccccc34)sc2c1 | 33.6 µM (inactive) | 42.1 µM (inactive) | 24.1 µM (inactive) | 19.9 µM (inactive) | 52 µM (inactive) | 63.5 µM (inactive) | 14.8 µM (inactive) | 39.7 µM (inactive) | 25.6 µM (inactive) | 16.2 µM (inactive) | 19.2 µM (inactive) | 22.2 µM (inactive) | 52 µM (inactive) | 48.4 µM (inactive) | 59.2 | 23.1 µM (inactive) | 36 µM (inactive) | –
O=C(C#Cc1ccccc1)Nc1ccccc1CC(c1c[nH]c2ccccc12)c1c[nH]c2ccccc12 | 23.2 µM (inactive) | 3.33 µM (inactive) | 31.5 µM (inactive) | 9.46 µM (inactive) | – | – | – | 26 µM (inactive) | 7.5 µM (inactive) | – | 33.2 µM (inactive) | 39.6 µM (inactive) | 8.83 µM (inactive) | 15.5 µM (inactive) | 7.5 | 17.9 µM (inactive) | 10.3 µM (inactive) | –
O=C1c2cccc3cc([N+](=O)[O-])cc(c23)C(=O)N1CCCN1CCN(CCCN2C(=O)c3cccc4cc([N+](=O)[O-])cc(c34)C2=O)CC1 | 0.0381 µM (active) | 0.027 µM (active) | 0.798 µM (active) | 0.0386 µM (active) | 0.0142 µM (active) | 0.272 µM (active) | 0.237 µM (active) | 0.122 µM (active) | 0.0579 µM (active) | 0.0925 µM (active) | 2.59 µM (inactive) | 2.88 µM (inactive) | 0.08 µM (active) | – | 0.0495 | 0.0853 µM (active) | < 0.01 µM (active) | –
O=C(O)CNCc1c2ccccc2[n+]([O-])c2ccccc12 | > 100 µM (inactive) | 31 µM (inactive) | > 100 µM (inactive) | > 100 µM (inactive) | 72.4 µM (inactive) | > 100 µM (inactive) | 16.9 µM (inactive) | > 100 µM (inactive) | 58.1 µM (inactive) | 49.3 µM (inactive) | > 100 µM (inactive) | > 100 µM (inactive) | 73.6 µM (inactive) | 75.7 µM (inactive) | 30.8 | 48.1 µM (inactive) | 57.1 µM (inactive) | –
CC12OC(=O)C(C#N)C1(C)C1C(=O)CCCC12 (centres undefined) | > 100 µM (inactive) | > 100 µM (inactive) | > 100 µM (inactive) | > 100 µM (inactive) | > 100 µM (inactive) | – | – | > 100 µM (inactive) | > 100 µM (inactive) | > 100 µM (inactive) | > 100 µM (inactive) | – | > 100 µM (inactive) | > 100 µM (inactive) | > 100 | > 100 µM (inactive) | – | –
COC(=O)C(=O)C(C#N)c1cccc(Cl)c1 (centres undefined) | > 100 µM (inactive) | > 100 µM (inactive) | > 100 µM (inactive) | > 100 µM (inactive) | > 100 µM (inactive) | > 100 µM (inactive) | – | > 100 µM (inactive) | > 100 µM (inactive) | > 100 µM (inactive) | > 100 µM (inactive) | > 100 µM (inactive) | > 100 µM (inactive) | > 100 µM (inactive) | > 100 | > 100 µM (inactive) | > 100 µM (inactive) | > 100 µM (inactive)
CCOc1ccc(O)cc1[P+](c1ccccc1)(c1ccccc1)c1ccccc1 | 4.69 µM (inactive) | – | 3.43 µM (inactive) | 4.5 µM (inactive) | 3.24 µM (inactive) | 11.7 µM (inactive) | – | 3.33 µM (inactive) | 3.79 µM (inactive) | 6.22 µM (inactive) | 6.53 µM (inactive) | 8.41 µM (inactive) | 3.13 µM (inactive) | 4.47 µM (inactive) | – | 1.66 µM (inactive) | 2.85 µM (inactive) | –
